# Test system: Subjects With Active Crohn's Disease With Evidence of Mucosal Ulceration
# Assay: Study 3 - Crohn's Disease Activity Index (CDAI) scores
# Format: in vivo, human
# Description: Double-Blind, Randomized, Placebo-Controlled, Multi-Centre Study to Investigate the Efficacy and Safety of Compound 1 in Subjects With Active Crohn's Disease With Evidence of Mucosal Ulceration. This is a double-blind, randomized, placebo-controlled, multi-centre Phase 2 study to investigate the efficacy and safety of Compound 1 administered once daily for the treatment of active CD with evidence of mucosal ulceration. The pharmacokinetics (including a PK substudy) and pharmacodynamics of Compound 1 and metabolite in CD will also be characterised. A total of 180 eligible subjects will be randomized to receive Compound 1 or placebo in addition to their stable background treatment (eg, corticosteroids, aminosalicylates, or CD-related antibiotics). The study will consist of 2 parts, with total treatment duration of 20 weeks. Randomization in Part 1 will be stratified according the subject's previous anti-TNF exposure/response, CRP level at Screening, and oral corticosteroid use at visit Day −1. After the first 10 weeks of treatment in Part 1, patients will be re-randomized for Part 2 as shown in the diagram below and will be stratified according to the subject's clinical response, previous anti-TNF exposure/response, and oral corticosteroid use at visit Day -1. [table] The Crohn's disease activity index (CDAI) is a numerical calculation derived from the sum of products from a list of 8 items (see Table CXXVI below), and multiplied by weighting factors for each item to define the severity of “disease activity” in patients with Crohn's disease (CD)[1]. Essentially, the CDAI represents a numerical estimation of a physician's interpretation of patient symptoms. Index values of 150 and below are associated with quiescent or non-active disease (i.e. “remission”). Values over 150 are indicative of active disease, and over 450, extremely severe disease.% In the present study, clinical remission is defined as a CDAI score of <150 points, and a clinical response is defined as a decrease in CDAI score of at least 100 points.
# [1] = 200 mg, LOCF, baseline corticosteroid use: with steroids
# [2] = 200 mg, LOCF, baseline corticosteroid use: without steroids
# [3] = 200 mg, week 10, Anti-TNF Naïve
# [4] = 200 mg, week 10, Anti-TNF experienced non-responders
# [5] = 200 mg, week 10, LOCF, screening CRP ≤ 10 ml/L
# [6] = 200 mg, week 10, LOCF, screening CRP ≥ 10 mg/L
# [7] = initial 200 mg non-responders, continued 200 mg, week 10
# [8] = initial 200 mg non-responders, continued 200 mg, week 20
# [9] = initial 200 mg non-responders, to placebo, week 10
# [10] = initial 200 mg non-responders, to placebo, week 20
# [11] = initial 200 mg responders, continued 200 mg, week 10
# [12] = initial 200 mg responders, continued 200 mg, week 20
# [13] = initial 200 mg responders, to 100 mg, week 10
# [14] = initial 200 mg responders, to 100 mg, week 20
# [15] = initial 200 mg responders, to placebo, week 10
# [16] = initial 200 mg responders, to placebo, week 20
# [17] = initial placebo non-responders switching to 100 mg at week 10, week 20
smiles,measurement,setting,value
"O=C(Nc1nc2cccc(-c3ccc(CN4CCS(=O)(=O)CC4)cc3)n2n1)C1CC1 [Compound 1, cyclopropanecarboxylic acid {5-[4-(1,1-dioxo-thiomorpholin-4-ylmethyl)-phenyl]-[1,2,4]triazolo[1,5-a]pyridin-2-yl}-amide]",70 point clinical response (CDAI improvement ≥ 70 points),[1],70%
same,100 point clinical response (CDAI improvement ≥ 100 points),[1],60%
same,Clinical Remission (CDAI < 150),[1],52%
same,70 point clinical response (CDAI improvement ≥ 70 points),[2],72%
same,100 point clinical response (CDAI improvement ≥ 100 points),[2],71%
same,Clinical Remission (CDAI < 150),[2],48%
same,70 point clinical response (CDAI improvement ≥ 70 points),[3],81%
same,"100 point clinical response (CDAI improvement ≥ 100 points), LOCF",[3],74%
same,"Clinical Remission (CDAI < 150), LOCF",[3],65%
same,70 point clinical response (CDAI improvement ≥ 70 points),[4],63%
same,"100 point clinical response (CDAI improvement ≥ 100 points), LOCF",[4],59%
same,"Clinical Remission (CDAI < 150), LOCF",[4],38%
same,70 point clinical response (CDAI improvement ≥ 70 points),[5],73%
same,100 point clinical response (CDAI improvement ≥ 100 points),[5],66%
same,Clinical Remission (CDAI < 150),[5],46%
same,70 point clinical response (CDAI improvement ≥ 70 points),[6],69%
same,100 point clinical response (CDAI improvement ≥ 100 points),[6],65%
same,Clinical Remission (CDAI < 150),[6],56%
same,"100 point clinical response (CDAI improvement ≥ 100 points), LOCF","200 mg, week 10, overall",66%
same,"100 point clinical response (CDAI improvement ≥ 100 points), NRI","200 mg, week 10, overall",60%
same,"Clinical Remission (CDAI < 150), LOCF","200 mg, week 10, overall",50%
same,"Clinical Remission (CDAI <150), NRI","200 mg, week 10, overall",48%
same,"Clinical Remission (CDAI < 150), LOCF",[7],16%
same,"Clinical Remission (CDAI <150), NRI",[7],16%
same,"Clinical Remission (CDAI <150), OC",[7],16%
same,"Clinical Response (CDAI ≥70), LOCF",[7],44%
same,"Clinical Response (CDAI ≥70), NRI",[7],44%
same,"Clinical Response (CDAI ≥70), OC",[7],44%
same,"Clinical Response (CDAI ≥100), LOCF",[7],32%
same,"Clinical Response (CDAI ≥100), NRI",[7],32%
same,"Clinical Response (CDAI ≥ 100), OC",[7],32%
same,"Clinical Remission (CDAI < 150), LOCF",[8],28%
same,"Clinical Remission (CDAI <150), NRI",[8],24%
same,"Clinical Remission (CDAI <150), OC",[8],30%
same,"Clinical Response (CDAI ≥70), LOCF",[8],44%
same,"Clinical Response (CDAI ≥70), NRI",[8],40%
same,"Clinical Response (CDAI ≥70), OC",[8],50%
same,"Clinical Response (CDAI ≥100), LOCF",[8],36%
same,"Clinical Response (CDAI ≥100), NRI",[8],32%
same,"Clinical Response (CDAI ≥ 100), OC",[8],40%
same,"Clinical Remission (CDAI < 150), LOCF",[9],0%
same,"Clinical Remission (CDAI <150), NRI",[9],0%
same,"Clinical Remission (CDAI <150), OC",[9],0%
same,"Clinical Response (CDAI ≥70), LOCF",[9],22%
same,"Clinical Response (CDAI ≥70), NRI",[9],11%
same,"Clinical Response (CDAI ≥70), OC",[9],13%
same,"Clinical Response (CDAI ≥100), LOCF",[9],22%
same,"Clinical Response (CDAI ≥100), NRI",[9],11%
same,"Clinical Response (CDAI ≥ 100), OC",[9],13%
same,"Clinical Remission (CDAI < 150), LOCF",[10],33%
same,"Clinical Remission (CDAI <150), NRI",[10],33%
same,"Clinical Remission (CDAI <150), OC",[10],38%
same,"Clinical Response (CDAI ≥70), LOCF",[10],44%
same,"Clinical Response (CDAI ≥70), NRI",[10],44%
same,"Clinical Response (CDAI ≥70), OC",[10],50%
same,"Clinical Response (CDAI ≥100), LOCF",[10],33%
same,"Clinical Response (CDAI ≥100), NRI",[10],33%
same,"Clinical Response (CDAI ≥ 100), OC",[10],38%
same,"Clinical Remission (CDAI < 150), LOCF",[11],67%
same,"Clinical Remission (CDAI <150), NRI",[11],63%
same,"Clinical Remission (CDAI <150), OC",[11],70%
same,"Clinical Response (CDAI decrease ≥100 points), OC",[11],93%
same,"Clinical Response (CDAI ≥70), LOCF",[11],100%
same,"Clinical Response (CDAI ≥70), NRI",[11],90%
same,"Clinical Response (CDAI ≥70), OC",[11],100%
same,"Clinical Response (CDAI ≥100), LOCF",[11],93%
same,"Clinical Response (CDAI ≥100), NRI",[11],83%
same,"Clinical Remission (CDAI < 150), LOCF",[12],57%
same,"Clinical Remission (CDAI <150), NRI",[12],50%
same,"Clinical Remission (CDAI <150), OC",[12],58%
same,"Clinical Response (CDAI decrease ≥100 points), OC",[12],77%
same,"Clinical Response (CDAI ≥70), LOCF",[12],80%
same,"Clinical Response (CDAI ≥70), NRI",[12],70%
same,"Clinical Response (CDAI ≥70), OC",[12],81%
same,"Clinical Response (CDAI ≥100), LOCF",[12],77%
same,"Clinical Response (CDAI ≥100), NRI",[12],67%
same,"Clinical Remission (CDAI < 150), LOCF",[13],87%
same,"Clinical Remission (CDAI <150), NRI",[13],87%
same,"Clinical Remission (CDAI <150), OC",[13],87%
same,"Clinical Response (CDAI decrease ≥100 points), OC",[13],97%
same,"Clinical Response (CDAI ≥70), LOCF",[13],100%
same,"Clinical Response (CDAI ≥70), NRI",[13],100%
same,"Clinical Response (CDAI ≥70), OC",[13],100%
same,"Clinical Response (CDAI ≥100), LOCF",[13],97%
same,"Clinical Response (CDAI ≥100), NRI",[13],97%
same,"Clinical Remission (CDAI < 150), LOCF",[14],63%
same,"Clinical Remission (CDAI <150), NRI",[14],60%
same,"Clinical Remission (CDAI <150), OC",[14],75%
same,"Clinical Response (CDAI decrease ≥100 points), OC",[14],92%
same,"Clinical Response (CDAI ≥70), LOCF",[14],83%
same,"Clinical Response (CDAI ≥70), NRI",[14],77%
same,"Clinical Response (CDAI ≥70), OC",[14],96%
same,"Clinical Response (CDAI ≥100), LOCF",[14],80%
same,"Clinical Response (CDAI ≥100), NRI",[14],73%
same,"Clinical Remission (CDAI < 150), LOCF",[15],79%
same,"Clinical Remission (CDAI <150), NRI",[15],71%
same,"Clinical Remission (CDAI <150), OC",[15],77%
same,"Clinical Response (CDAI decrease ≥100 points), OC",[15],92%
same,"Clinical Response (CDAI ≥70), LOCF",[15],100%
same,"Clinical Response (CDAI ≥70), NRI",[15],93%
same,"Clinical Response (CDAI ≥70), OC",[15],100%
same,"Clinical Response (CDAI ≥100), LOCF",[15],93%
same,"Clinical Response (CDAI ≥100), NRI",[15],86%
same,"Clinical Remission (CDAI < 150), LOCF",[16],79%
same,"Clinical Remission (CDAI <150), NRI",[16],71%
same,"Clinical Remission (CDAI <150), OC",[16],77%
same,"Clinical Response (CDAI decrease ≥100 points), OC",[16],85%
same,"Clinical Response (CDAI ≥70), LOCF",[16],93%
same,"Clinical Response (CDAI ≥70), NRI",[16],86%
same,"Clinical Response (CDAI ≥70), OC",[16],92%
same,"Clinical Response (CDAI ≥100), LOCF",[16],86%
same,"Clinical Response (CDAI ≥100), NRI",[16],79%
same,"Clinical Remission (CDAI < 150), LOCF",[17],32%
same,"Clinical Remission (CDAI <150), NRI",[17],32%
same,"Clinical Remission (CDAI <150), OC",[17],33%
same,"Clinical Response (CDAI ≥70), LOCF",[17],68%
same,"Clinical Response (CDAI ≥70), NRI",[17],68%
same,"Clinical Response (CDAI ≥70), OC",[17],71%
same,"Clinical Response (CDAI ≥100), LOCF",[17],59%
same,"Clinical Response (CDAI ≥100), NRI",[17],59%
same,"Clinical Response (CDAI ≥ 100), OC",[17],62%
